Laboratory results taken from ChEMBL document CHEMBL1833850, “Thailandepsins: bacterial products with potent histone deacetylase inhibitory activities and broad-spectrum antiproliferative activities” (J Nat Prod, 2011).

Experiments:
Histone deacetylase 7 = biological target: T1, Histone deacetylase 7 (Homo sapiens, UniProt Q8WUI4)
T1 sequence (Q8WUI4 whole entry): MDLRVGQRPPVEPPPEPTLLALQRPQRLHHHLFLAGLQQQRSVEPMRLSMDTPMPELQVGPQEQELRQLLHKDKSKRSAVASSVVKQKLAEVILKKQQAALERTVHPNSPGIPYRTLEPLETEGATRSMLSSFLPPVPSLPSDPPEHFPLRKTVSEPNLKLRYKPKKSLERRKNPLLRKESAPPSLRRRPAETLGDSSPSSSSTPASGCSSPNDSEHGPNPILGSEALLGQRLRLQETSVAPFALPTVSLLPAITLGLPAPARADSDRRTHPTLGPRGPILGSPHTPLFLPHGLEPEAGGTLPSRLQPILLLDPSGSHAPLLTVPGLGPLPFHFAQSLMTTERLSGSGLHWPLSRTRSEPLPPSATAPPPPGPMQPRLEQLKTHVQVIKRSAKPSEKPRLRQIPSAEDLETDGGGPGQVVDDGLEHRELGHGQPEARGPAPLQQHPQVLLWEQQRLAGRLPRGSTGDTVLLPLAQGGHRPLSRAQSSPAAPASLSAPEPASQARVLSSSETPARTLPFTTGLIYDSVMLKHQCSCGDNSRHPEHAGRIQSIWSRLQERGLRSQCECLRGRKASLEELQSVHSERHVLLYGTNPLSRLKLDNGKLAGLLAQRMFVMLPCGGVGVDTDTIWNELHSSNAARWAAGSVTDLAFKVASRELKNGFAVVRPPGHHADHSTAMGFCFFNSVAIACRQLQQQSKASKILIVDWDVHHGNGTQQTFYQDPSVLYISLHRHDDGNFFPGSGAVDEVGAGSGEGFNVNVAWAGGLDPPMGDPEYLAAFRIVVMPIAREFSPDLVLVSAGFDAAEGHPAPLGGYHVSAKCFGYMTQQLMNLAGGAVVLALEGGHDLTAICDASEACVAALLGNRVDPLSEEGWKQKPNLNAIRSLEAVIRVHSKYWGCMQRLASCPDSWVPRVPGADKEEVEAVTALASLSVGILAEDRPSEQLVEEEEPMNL
Description: Inhibition of recombinant human HDAC7 using Boc-L-Lys(epsilon-trifluoroacetyl)-AMC as substrate by two-step fluorogenic assay

Histone deacetylase 4 = Histone deacetylase 4 (Homo sapiens, UniProt P56524)
Chain of Histone deacetylase 4 (P56524 whole entry): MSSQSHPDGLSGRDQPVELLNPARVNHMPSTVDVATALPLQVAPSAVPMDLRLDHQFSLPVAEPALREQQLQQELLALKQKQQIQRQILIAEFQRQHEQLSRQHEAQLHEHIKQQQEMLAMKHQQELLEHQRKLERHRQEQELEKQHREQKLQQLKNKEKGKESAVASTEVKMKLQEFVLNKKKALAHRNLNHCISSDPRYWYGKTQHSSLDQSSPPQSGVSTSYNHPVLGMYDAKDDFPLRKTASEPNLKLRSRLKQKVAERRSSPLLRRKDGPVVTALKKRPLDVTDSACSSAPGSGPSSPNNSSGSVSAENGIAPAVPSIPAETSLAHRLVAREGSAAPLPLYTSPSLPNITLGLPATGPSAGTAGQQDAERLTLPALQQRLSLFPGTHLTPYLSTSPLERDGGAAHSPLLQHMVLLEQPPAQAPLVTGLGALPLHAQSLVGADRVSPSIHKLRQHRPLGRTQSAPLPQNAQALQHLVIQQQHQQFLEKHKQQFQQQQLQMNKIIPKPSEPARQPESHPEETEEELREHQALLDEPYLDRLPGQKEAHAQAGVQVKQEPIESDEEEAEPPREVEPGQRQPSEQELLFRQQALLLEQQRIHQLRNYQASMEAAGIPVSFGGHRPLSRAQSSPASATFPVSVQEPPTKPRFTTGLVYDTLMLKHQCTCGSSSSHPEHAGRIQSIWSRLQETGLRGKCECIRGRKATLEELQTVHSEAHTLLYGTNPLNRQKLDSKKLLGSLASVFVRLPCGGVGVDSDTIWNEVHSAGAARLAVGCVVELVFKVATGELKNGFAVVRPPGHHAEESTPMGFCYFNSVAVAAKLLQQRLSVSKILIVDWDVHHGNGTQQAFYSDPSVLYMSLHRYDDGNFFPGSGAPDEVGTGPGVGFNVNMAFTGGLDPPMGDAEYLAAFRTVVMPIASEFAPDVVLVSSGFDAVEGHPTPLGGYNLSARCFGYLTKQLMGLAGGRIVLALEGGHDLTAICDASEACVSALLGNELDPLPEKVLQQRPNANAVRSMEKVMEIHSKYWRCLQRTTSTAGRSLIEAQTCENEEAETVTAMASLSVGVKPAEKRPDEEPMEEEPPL

Histone deacetylase 9 = Histone deacetylase 9 (Homo sapiens, UniProt Q9UKV0)
Chain of Histone deacetylase 9 (Q9UKV0 whole entry): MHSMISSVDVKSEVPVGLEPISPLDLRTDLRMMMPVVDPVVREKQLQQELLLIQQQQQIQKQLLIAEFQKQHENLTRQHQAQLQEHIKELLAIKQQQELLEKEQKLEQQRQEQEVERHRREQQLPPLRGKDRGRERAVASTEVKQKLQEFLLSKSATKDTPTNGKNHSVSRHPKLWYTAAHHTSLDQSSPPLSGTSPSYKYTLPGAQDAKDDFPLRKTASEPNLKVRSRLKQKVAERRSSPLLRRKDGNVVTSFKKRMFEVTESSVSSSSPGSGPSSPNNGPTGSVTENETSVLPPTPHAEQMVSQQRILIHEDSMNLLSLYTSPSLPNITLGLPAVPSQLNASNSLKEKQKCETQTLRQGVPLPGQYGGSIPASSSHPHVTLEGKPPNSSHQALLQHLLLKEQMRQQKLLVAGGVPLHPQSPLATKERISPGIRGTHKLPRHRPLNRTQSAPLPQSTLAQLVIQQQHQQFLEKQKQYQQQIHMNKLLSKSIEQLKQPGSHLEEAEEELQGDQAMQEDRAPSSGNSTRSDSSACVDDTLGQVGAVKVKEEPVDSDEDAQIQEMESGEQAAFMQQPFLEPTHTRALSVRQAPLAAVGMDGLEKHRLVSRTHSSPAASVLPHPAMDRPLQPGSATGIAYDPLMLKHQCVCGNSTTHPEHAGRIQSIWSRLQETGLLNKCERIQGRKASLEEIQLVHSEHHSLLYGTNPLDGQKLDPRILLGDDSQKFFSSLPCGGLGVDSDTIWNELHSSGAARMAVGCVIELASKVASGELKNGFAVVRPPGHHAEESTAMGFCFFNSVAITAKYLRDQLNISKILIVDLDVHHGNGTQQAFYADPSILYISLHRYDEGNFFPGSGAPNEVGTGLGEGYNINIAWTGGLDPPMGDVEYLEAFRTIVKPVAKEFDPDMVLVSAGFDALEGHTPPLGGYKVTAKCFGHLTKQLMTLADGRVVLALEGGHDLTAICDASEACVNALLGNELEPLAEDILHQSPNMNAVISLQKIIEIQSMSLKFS

[1] = biological target: Histone deacetylase 1/Nuclear receptor corepressor 2 (Homo sapiens, UniProt Q13547); assay: Inhibition of recombinant human HDAC1/NCOR2 using Boc-L-Lys(epsilon-acetyl)-AMC as substrate by two-step fluorogenic assay; assay type: protein-complex assay
Chain of Histone deacetylase 1/Nuclear receptor corepressor 2 (Q13547 whole entry): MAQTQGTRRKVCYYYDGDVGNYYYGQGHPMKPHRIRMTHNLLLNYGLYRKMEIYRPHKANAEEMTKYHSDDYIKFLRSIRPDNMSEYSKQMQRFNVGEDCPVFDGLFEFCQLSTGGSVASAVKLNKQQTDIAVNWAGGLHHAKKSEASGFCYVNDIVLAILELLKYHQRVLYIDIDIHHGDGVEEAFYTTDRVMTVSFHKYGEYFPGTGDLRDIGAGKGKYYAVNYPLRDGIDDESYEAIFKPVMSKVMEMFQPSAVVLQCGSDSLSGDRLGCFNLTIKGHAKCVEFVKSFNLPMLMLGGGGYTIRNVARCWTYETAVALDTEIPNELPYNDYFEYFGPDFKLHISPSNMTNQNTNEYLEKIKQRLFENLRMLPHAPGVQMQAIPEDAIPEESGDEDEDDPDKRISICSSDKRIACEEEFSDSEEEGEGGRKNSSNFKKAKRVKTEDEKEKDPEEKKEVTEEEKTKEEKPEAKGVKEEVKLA
Chain of Histone deacetylase 1/Nuclear receptor corepressor 2 (Q9Y618 whole entry, further chain): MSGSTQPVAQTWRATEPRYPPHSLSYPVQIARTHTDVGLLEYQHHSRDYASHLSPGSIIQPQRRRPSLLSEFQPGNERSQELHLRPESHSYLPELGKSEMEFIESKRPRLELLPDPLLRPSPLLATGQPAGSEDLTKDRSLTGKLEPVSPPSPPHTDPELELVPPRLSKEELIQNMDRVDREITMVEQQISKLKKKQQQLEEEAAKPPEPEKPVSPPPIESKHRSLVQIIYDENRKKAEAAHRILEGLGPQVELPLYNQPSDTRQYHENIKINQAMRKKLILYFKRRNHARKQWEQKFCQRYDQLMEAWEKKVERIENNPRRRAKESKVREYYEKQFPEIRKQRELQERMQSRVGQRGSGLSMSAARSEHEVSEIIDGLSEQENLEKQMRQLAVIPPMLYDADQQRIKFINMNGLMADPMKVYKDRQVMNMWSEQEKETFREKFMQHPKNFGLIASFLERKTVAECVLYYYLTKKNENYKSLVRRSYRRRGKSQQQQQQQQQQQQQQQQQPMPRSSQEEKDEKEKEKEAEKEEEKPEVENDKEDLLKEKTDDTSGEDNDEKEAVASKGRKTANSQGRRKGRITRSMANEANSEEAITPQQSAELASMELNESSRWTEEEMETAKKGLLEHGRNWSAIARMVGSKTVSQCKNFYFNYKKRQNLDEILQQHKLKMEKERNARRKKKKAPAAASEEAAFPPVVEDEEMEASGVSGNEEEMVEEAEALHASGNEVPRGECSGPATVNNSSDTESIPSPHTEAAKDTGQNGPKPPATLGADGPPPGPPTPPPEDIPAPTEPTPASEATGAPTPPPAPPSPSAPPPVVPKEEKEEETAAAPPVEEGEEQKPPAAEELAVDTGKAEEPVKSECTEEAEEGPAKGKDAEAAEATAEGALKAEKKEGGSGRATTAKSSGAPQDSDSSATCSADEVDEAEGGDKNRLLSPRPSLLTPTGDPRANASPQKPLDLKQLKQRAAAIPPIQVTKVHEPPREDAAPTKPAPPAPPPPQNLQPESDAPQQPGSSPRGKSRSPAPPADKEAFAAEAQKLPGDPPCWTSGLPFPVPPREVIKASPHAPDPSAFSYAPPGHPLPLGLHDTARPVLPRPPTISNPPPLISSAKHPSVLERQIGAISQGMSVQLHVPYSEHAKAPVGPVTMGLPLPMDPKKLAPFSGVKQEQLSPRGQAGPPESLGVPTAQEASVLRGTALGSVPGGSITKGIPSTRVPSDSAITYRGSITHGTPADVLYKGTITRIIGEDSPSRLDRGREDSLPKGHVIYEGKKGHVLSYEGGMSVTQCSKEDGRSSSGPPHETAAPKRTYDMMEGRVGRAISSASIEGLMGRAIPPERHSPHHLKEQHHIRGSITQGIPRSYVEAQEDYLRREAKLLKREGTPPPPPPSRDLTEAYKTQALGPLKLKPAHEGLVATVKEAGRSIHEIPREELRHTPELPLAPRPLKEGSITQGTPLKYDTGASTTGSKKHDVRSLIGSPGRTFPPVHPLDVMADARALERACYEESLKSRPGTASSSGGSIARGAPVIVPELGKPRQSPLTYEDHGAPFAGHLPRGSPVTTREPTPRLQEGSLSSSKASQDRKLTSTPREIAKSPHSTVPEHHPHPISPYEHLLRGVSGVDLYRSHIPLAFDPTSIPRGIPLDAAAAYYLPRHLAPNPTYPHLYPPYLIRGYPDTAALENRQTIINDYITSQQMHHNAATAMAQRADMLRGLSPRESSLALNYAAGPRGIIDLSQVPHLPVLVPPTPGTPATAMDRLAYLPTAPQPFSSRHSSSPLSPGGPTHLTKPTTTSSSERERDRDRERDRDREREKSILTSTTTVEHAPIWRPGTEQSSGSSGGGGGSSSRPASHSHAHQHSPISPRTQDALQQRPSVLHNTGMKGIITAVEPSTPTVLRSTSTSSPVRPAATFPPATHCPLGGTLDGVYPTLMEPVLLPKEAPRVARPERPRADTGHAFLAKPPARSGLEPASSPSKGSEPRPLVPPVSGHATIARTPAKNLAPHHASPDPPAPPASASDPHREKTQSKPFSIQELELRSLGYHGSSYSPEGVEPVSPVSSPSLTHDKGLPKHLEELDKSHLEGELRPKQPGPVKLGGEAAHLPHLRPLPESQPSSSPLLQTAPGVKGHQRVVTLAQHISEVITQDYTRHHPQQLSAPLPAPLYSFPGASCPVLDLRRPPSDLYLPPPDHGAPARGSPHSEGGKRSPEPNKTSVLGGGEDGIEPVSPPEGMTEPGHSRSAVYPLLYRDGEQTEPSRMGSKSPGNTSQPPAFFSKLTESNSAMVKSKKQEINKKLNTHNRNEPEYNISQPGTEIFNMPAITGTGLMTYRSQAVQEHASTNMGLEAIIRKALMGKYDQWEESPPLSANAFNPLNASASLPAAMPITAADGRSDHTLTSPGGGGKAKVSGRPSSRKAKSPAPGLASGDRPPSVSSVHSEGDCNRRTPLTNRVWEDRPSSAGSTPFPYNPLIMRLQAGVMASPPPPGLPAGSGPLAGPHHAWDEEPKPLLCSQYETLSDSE

[2] = biological target: Histone deacetylase 3/Nuclear receptor corepressor 2 (HDAC3/NCoR2) (Homo sapiens, UniProt O15379); assay type: protein-complex assay
[3] = biological target: Histone deacetylase 2/Nuclear receptor corepressor 2 (Homo sapiens, UniProt Q92769); assay: Inhibition of recombinant human HDAC2/NCOR2 using Boc-L-Lys(epsilon-acetyl)-AMC as substrate by two-step fluorogenic assay; assay type: protein-complex assay
[4] = biological target: T2, Protein deacetylase HDAC6 (Homo sapiens, UniProt Q9UBN7); assay: Inhibition of recombinant human HDAC6 using Boc-L-Lys(epsilon-acetyl)-AMC as substrate by two-step fluorogenic assay
T2 sequence (Q9UBN7 whole entry): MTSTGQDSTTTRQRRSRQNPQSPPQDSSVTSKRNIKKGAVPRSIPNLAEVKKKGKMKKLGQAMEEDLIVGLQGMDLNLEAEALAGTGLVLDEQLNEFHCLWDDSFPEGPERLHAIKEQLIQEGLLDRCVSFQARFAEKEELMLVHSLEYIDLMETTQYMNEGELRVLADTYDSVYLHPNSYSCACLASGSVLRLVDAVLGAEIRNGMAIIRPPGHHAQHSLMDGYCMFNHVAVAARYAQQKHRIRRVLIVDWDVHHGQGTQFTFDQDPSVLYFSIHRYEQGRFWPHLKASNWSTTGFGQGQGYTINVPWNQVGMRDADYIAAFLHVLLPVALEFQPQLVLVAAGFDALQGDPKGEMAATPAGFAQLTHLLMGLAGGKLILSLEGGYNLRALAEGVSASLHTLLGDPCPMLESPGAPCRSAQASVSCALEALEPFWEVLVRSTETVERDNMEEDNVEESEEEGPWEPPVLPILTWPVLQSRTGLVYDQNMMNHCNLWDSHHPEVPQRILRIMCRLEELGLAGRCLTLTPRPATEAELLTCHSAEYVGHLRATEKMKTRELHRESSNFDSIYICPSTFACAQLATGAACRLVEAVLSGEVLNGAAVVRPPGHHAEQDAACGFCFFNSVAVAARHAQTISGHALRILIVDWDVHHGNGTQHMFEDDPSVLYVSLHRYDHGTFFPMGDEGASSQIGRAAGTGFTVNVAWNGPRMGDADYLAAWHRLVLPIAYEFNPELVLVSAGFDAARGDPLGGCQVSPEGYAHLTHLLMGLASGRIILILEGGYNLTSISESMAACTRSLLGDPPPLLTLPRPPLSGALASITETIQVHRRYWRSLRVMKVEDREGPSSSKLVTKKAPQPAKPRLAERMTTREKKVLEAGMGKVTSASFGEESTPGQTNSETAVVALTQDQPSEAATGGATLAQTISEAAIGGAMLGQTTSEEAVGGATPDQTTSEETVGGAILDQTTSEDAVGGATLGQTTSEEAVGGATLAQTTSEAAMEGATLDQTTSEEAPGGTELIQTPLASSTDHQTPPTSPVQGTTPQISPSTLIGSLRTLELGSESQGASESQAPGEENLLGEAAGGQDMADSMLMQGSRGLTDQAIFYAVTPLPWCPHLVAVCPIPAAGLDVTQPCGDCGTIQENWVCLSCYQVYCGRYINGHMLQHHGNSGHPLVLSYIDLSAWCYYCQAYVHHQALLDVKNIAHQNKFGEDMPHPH

Histone deacetylase 8 = biological target: T3, Histone deacetylase 8 (Homo sapiens, UniProt Q9BY41)
T3 sequence (Q9BY41 whole entry): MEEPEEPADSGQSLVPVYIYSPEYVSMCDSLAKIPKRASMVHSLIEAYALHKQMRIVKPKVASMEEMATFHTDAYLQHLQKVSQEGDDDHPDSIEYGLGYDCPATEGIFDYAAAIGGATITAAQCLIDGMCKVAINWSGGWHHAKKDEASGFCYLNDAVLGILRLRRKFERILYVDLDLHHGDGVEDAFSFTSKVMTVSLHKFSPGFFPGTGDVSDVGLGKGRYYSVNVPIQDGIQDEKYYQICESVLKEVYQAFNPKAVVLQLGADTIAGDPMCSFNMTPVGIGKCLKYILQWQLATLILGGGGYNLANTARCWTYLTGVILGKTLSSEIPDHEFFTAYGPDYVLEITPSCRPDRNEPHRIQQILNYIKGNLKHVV

C/C=C1\NC(=O)[C@H]2CSSCC/C=C/[C@H](CC(=O)N[C@H](C(C)C)C(=O)N2)OC(=O)[C@H](C(C)C)NC1=O [ROMIDEPSIN]
IC50 (Histone deacetylase 7): > 50 µM | IC50 (Histone deacetylase 4): > 50 µM | IC50 (Histone deacetylase 9): > 50 µM | IC50 [1]: 6.7 µM

CC[C@H](C)[C@H]1NC(=O)[C@H]2CSSCC/C=C/[C@H](CC(=O)N[C@H](CCSC)C(=O)N2)OC(=O)C[C@@H]1O [THAILANDEPSIN A]
IC50 (Histone deacetylase 7): > 50 µM | IC50 [2]: 0.087 µM | IC50 [3]: 39 µM | IC50 (Histone deacetylase 4): > 50 µM | IC50 [4]: 9.9 µM | IC50 (Histone deacetylase 9): > 50 µM | IC50 [1]: 7.5 µM | IC50 (Histone deacetylase 8): > 50 µM

CCCC[C@H]1NC(=O)C[C@H]2/C=C/CCSSC[C@@H](NC1=O)C(=O)N[C@H]([C@@H](C)CC)[C@@H](O)CC(=O)O2 [THAILANDEPSIN B]
IC50 [2]: 0.023 µM | IC50 [3]: 4.5 µM | IC50 (Histone deacetylase 4): 22 µM | IC50 [4]: 11 µM | IC50 (Histone deacetylase 9): > 50 µM | IC50 [1]: 7.7 µM | IC50 (Histone deacetylase 8): 30 µM
